In article PMC6145916, “Interaction of mitochondrial fission factor with dynamin related protein 1 governs physiological mitochondrial function in vivo” (Scientific Reports, 2018):
Where no end group is shown, it is not given here.

What was measured:
[1] = system: Drp1 with Fis1/Mid49/Mid51; test: Co-immunoprecipitation of recombinant Drp1 with the other adaptors; type: binding; settings: 1 µM P259, 2 hours at 4 °C, 200 ng Drp1, 200 ng adaptor, RIPA buffer; representative blot of two independent experiments
SH-SY5Y cells = test: Oxygen consumption rate, SH-SY5Y; type: cell-based, human; settings: overnight treatment, XFe24 analyzer
MFF knockout MEFs = test: Mitochondrial ROS (MitoSox), MFF knockout MEFs; type: cell-based, mouse; settings: 4 µM P259 daily for three days, vs no peptide; 3 independent experiments, three technical replicates; ns p = 0.23
Excerpt: Data are of 3 independent experiments with the whiskers calculated by the Turkey method. e. […]
production in an Mff -dependent manner. Mitochondrial reactive oxygen species production […]
treatment in each cell line. […]
determined by an unpaired, two -tailed t test). g. […]
control (no peptide treatment). Data are mean ± s.e. from 3 independent experiments.
(§1) Mitochondrial reactive oxygen species determination […]
and 1% penicillin-streptomycin solution (Corning, NY, USA). […]
(§2) and without phenol red. […] After incubation
(§3) HEPES, and without phenol red. […]
epifluorescence microscope with a 10X objective (Keyence). The Cy5 filter (Keyence) was used to autofocus on the mitochondria plane. […]
(§4) calculated as the average MitoSox signal per cell. […]

primary cortical neurons = test: Mitochondrial ROS (MitoSox Red), primary cortical neurons; type: cell-based, rat; settings: overnight treatment; n = 3, with 3 replicates
Procedure: Bottom, quantification of the form factor (degree of branching) and aspect ratio (major/minor axis length). At least 10,000 mitochondrial fragments were analyzed for each condition. Mitochondrial reactive oxygen species production (MitoSox Red) (b) and membrane potential (TMRM) (c) after overnight treatment with indicated concentrations of peptide (n = 3, with 3 replicates). […] Overlay of live microscopy imaging at time 0 (green) and 150 (red) seconds. […] An estimation of the % mobile mitochondria from the Pearson coefficient of each set of images. Data are mean ± s.e.
Following treatment, cells were washed with treatment media.
The Cy5 filter was used to autofocus on the mitochondria plane. Nuclei were imaged with a DAPI filter and the mitoROS (MitoSox) or membrane potential (TMRM) image was acquired with a TRITC filter. […] MitoROS was calculated as the average MitoSox signal per cell. The mitochondrial membrane potential was calculated as the average TMRM signal in the mitochondrial mask.
as §1
and 1% penicillin-streptomycin solution (Corning, NY, USA). Primary cortical neurons were treated with increasing concentrations of peptides in NbActiv1 media. HD Patient- and adult- […]
as §2, §3, §4

Drp1 = test: Mitochondrial Drp1 content in brain of wild-type mice; type: in vivo, mouse; settings: 3 mg/Kg/day, subcutaneous osmotic pump, 8-week treatment, WT mice; Drp1 relative to ALDH2; n = 4 mice
Excerpt: (a) Quantification of mitochondrial Drp1 content relative to ALDH2 (a mitochondrial matrix enzyme) in the mitochondrial fraction isolated from total brain lysate of wild-type mice (Western blot shown in Fig. S3B) (n = 4 mice). (b) ATP content in brain tissue of wild-type mice (n = 4 mice, 2 replicates). (c) Representative transmission electron microscopy images of the striatum from wild-type mice. […] The first principal component represents 42% of the variation. (f) Local linear embedding dimensionality reduction and visualization of all behaviors collected weekly from TAT- (black) or P259- (purple) treated WT and TAT- (white) treated R6/2 mice over the course of 8 weeks. […] All behavior and survival tests were conducted by an experienced observer who was blinded to the treatment groups. Data are mean ± s.e.
Five-week old R6/2 HD mice and their wild-type littermates (a total of 60 mice) were implanted subcutaneously with a 28-d Alzet osmotic pump with either P259-TAT or TAT control peptide (15 mice per group) to be delivered continuously at a rate of 3 mg/Kg/day, as previously described. […]
The effect of peptides on GTPase activity of Drp1 was measured by incubating recombinant Drp1 […]
for 1 hour at 37 °C. GTPase activity was measured using a colorimetric GTPase assay kit (Novus Biologicals, CO, USA) as instructed by the manufacturer. […]

“YGRKKRRQRRRGSGIIQLPEIVVV-NH2 (C-terminus assumed) [P259]” was tested, and the “binding of other receptors (Fis1, Mid49, Mid51) to co-immunoprecipitated recombinant Drp1” value [1] was “without affecting the binding of any other receptor”, the “electron flux (electron transport chain flux)” value (SH-SY5Y cells; 4 µM (Fig. 2f), n = 3, with at least 3 replicates) was “dose-dependent decline” and the “basal oxygen consumption rate” value (SH-SY5Y cells; indicated concentrations, 3 independent experiments) was “dose-dependent decline”. The “effect on mitochondrial ROS levels, Mff knockout MEFs” value (MFF knockout MEFs) was “insensitive”, the “mitochondrial ROS” value (primary cortical neurons) was “increased mitochondrial ROS” and the “reduction of mitochondrial Drp1 association (brain)” value (Drp1) was ~ 80%.
